According to BindingDB's records for doi:10.1021/jm050513m (The University of Texas At Houston, 2005):
Numbered stars: 1 amine (or outer) side, 2 acyl side, 3 side chain; on linkers, the order of the positions; unused ones are H or OH. Square brackets hold non-standard residues; d marks the D form. Peptide text beside a SMILES is read from it. * marks the point of attachment. ξ: configuration not given here. pY = N[C@@H](Cc1ccc(OP(=O)(O)O)cc1)C(=O)O; NH(1R-phenylethyl) = C[C@@H](N*)c1ccccc1; Met(O2) = CS(=O)(=O)CC[C@H](N)C(=O)O; Hydrocinnamoyl = O=C(CCc1ccccc1)*; NMeThr(3ξ) = CN[C@H](C(=O)O)C(C)O; Hyp = O=C(O)[C@@H]1C[C@@H](O)CN1; X3 = O=C(CN1CCN([*:1])CC1)[*:2]; Cha = N[C@@H](CC1CCCCC1)C(=O)O; Thr(3ξ) = CC(O)[C@H](N)C(=O)O; Pip = O=C(O)[C@@H]1CCCCN1; Aze = O=C(O)[C@@H]1CCN1; Cbz = O=C(OCc1ccccc1)*; Bz = O=C(c1ccccc1)*

Target: Signal transducer and activator of transcription 3 (Mus musculus, UniProt P42227)
Assay: Fluorescence Polarization Assay
Description: Fluorescence polarization (FP) binding assay is utilizing the intrinsic property of the fluorescent probe, which will have low polarization value when free in solution. On binding to a target, the polarization of the probe will increase. Reaction mixtures of full length STAT3 alpha and the probe were placed in wells of a 96-well microtiter plate. The test peptide solution was added to each well. Fluorescence polarization was then read in a Tecan Polarian plate reader. The IC50 values were obtained from nonlinear regression analysis in the one-site competition mode. Peptides were assayed three times using three separate Stat3-probe preparations. IC50 values are reported as the mean of three IC50 values +/- the standard deviation.

Sequence of Signal transducer and activator of transcription 3 (P42227 whole entry): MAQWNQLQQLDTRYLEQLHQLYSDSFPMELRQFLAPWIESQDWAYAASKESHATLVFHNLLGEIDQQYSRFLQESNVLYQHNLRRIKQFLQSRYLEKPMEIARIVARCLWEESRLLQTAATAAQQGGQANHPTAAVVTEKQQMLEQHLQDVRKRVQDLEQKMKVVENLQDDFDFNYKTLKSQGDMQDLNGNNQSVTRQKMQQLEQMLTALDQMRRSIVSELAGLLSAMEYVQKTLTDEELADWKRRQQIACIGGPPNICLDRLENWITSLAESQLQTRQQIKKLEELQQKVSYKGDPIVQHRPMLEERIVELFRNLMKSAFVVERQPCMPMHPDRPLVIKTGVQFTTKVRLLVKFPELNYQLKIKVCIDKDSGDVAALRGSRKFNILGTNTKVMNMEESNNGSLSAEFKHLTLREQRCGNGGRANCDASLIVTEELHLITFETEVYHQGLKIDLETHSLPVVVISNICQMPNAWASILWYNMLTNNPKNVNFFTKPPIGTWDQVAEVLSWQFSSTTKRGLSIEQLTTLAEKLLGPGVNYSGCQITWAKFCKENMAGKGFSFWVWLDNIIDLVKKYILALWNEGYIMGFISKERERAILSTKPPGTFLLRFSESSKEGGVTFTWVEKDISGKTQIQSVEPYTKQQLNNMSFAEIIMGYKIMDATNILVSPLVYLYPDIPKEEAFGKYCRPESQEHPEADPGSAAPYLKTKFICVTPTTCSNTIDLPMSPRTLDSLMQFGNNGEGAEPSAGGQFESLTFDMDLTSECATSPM

IC50 [nM] | SMILES | IC50 (pH 7.5, 22 °C) [nM]
– | CC(=O)N[C@@H](Cc1ccc(OP(=O)(O)O)cc1)C(=O)N[C@@H](CC(C)C)C(=O)N1CCC[C@H]1C(=O)N[C@@H](CCC(N)=O)C(=O)N[C@H](C(N)=O)C(C)O (stereo partly drawn) [4-[(2S)-2-{[(2S)-1-[(2S)-2-{[(1S)-3-carbamoyl-1-{[(1S,2S)-1-carbamoyl-2-hydroxypropyl]carbamoyl}propyl]carbamoyl}pyrrolidin-1-yl]-4-methyl-1-oxopentan-2-yl]carbamoyl}-2-acetamidoethyl]phenoxyphosphonic acid] | 739
– | CC(=O)N[C@@H](Cc1ccc(OP(=O)(O)O)cc1)C(=O)N[C@@H](CC(C)C)C(=O)N1C[C@H](O)C[C@H]1C(=O)N[C@@H](CCC(N)=O)C(=O)N[C@H](C(N)=O)C(C)O (stereo partly drawn) [4-[(2S)-2-{[(2S)-1-[(2S,4R)-2-{[(1S)-3-carbamoyl-1-{[(1S,2S)-1-carbamoyl-2-hydroxypropyl]carbamoyl}propyl]carbamoyl}-4-hydroxypyrrolidin-1-yl]-4-methyl-1-oxopentan-2-yl]carbamoyl}-2-acetamidoethyl]phenoxyphosphonic acid] (Ac-[pY]L[Hyp]Q[Thr(3ξ)]-NH2) | 484
1400 | CC(=O)N[C@@H](Cc1ccc(OP(=O)(O)O)cc1)C(=O)N[C@@H](CC(C)C)C(=O)N1CCC[C@H]1C(=O)N1CCN(CC(N)=O)CC1 [4-[(2S)-2-{[(2S)-1-[(2S)-2-{[4-(carbamoylmethyl)piperazin-1-yl]carbonyl}pyrrolidin-1-yl]-4-methyl-1-oxopentan-2-yl]carbamoyl}-2-acetamidoethyl]phenoxyphosphonic acid] | –
– | CC(=O)N[C@@H](Cc1ccc(OP(=O)(O)O)cc1)C(=O)N[C@@H](CC(C)C)C(=O)N1CCCC[C@H]1C(=O)N[C@@H](CCC(N)=O)C(=O)N[C@H](C(N)=O)C(C)O (stereo partly drawn) [4-[(2S)-2-{[(2S)-1-[(2S)-2-{[(1S)-3-carbamoyl-1-{[(1S,2S)-1-carbamoyl-2-hydroxypropyl]carbamoyl}propyl]carbamoyl}piperidin-1-yl]-4-methyl-1-oxopentan-2-yl]carbamoyl}-2-acetamidoethyl]phenoxyphosphonic acid] (Ac-[pY]L[Pip]Q[Thr(3ξ)]-NH2) | 1240
– | CC(=O)N[C@@H](Cc1ccc(OP(=O)(O)O)cc1)C(=O)N[C@@H](CC1CCCCC1)C(=O)N1CCC[C@H]1C(=O)N[C@@H](CCC(N)=O)C(=O)N[C@H](C(N)=O)C(C)O (stereo partly drawn) [4-[(2S)-2-{[(2S)-1-[(2S)-2-{[(1S)-3-carbamoyl-1-{[(1S,2S)-1-carbamoyl-2-hydroxypropyl]carbamoyl}propyl]carbamoyl}pyrrolidin-1-yl]-3-cyclohexyl-1-oxopropan-2-yl]carbamoyl}-2-acetamidoethyl]phenoxyphosphonic acid] (Ac-[pY][Cha]PQ[Thr(3ξ)]-NH2) | 910
– | CC(=O)N[C@@H](Cc1ccc(OP(=O)(O)O)cc1)C(=O)N[C@@H](CC(C)C)C(=O)N1CCN(CC(=O)N[C@@H](CCC(N)=O)C(=O)N[C@H](C(N)=O)C(C)O)CC1 (stereo partly drawn) [4-[(2S)-2-{[(2S)-1-[4-({[(1S)-3-carbamoyl-1-{[(1S,2S)-1-carbamoyl-2-hydroxypropyl]carbamoyl}propyl]carbamoyl}methyl)piperazin-1-yl]-4-methyl-1-oxopentan-2-yl]carbamoyl}-2-acetamidoethyl]phenoxyphosphonic acid] (Ac-[pY]L[X3]Q[Thr(3ξ)]-NH2) | 57100
– | CC(=O)N[C@@H](Cc1ccc(OP(=O)(O)O)cc1)C(=O)N[C@@H](CC(C)C)C(=O)N1CCC[C@H]1C(=O)N[C@@H](CCC(N)=O)C(N)=O (Ac-[pY]LPQ-NH2) | 856
– | CC(=O)N[C@@H](Cc1ccc(OP(=O)(O)O)cc1)C(=O)N[C@@H](CC(C)C)C(=O)N1CCC[C@H]1C(=O)N[C@@H](CCS(C)(=O)=O)C(=O)N[C@H](C(N)=O)C(C)O (stereo partly drawn) [4-[(2S)-2-{[(2S)-1-[(2S)-2-{[(1S)-1-{[(1S,2S)-1-carbamoyl-2-hydroxypropyl]carbamoyl}-3-methanesulfonylpropyl]carbamoyl}pyrrolidin-1-yl]-4-methyl-1-oxopentan-2-yl]carbamoyl}-2-acetamidoethyl]phenoxyphosphonic acid] (Ac-[pY]LP[Met(O2)][Thr(3ξ)]-NH2) | 13900
9810 | CC(=O)N[C@@H](Cc1ccc(OP(=O)(O)O)cc1)C(=O)N[C@@H](CC(C)C)C(=O)N1CCC[C@H]1C(=O)NC1CCCC(C(N)=O)C1 (stereo partly drawn) [4-[(2S)-2-{[(2S)-1-[(2S)-2-[(3-carbamoylcyclohexyl)carbamoyl]pyrrolidin-1-yl]-4-methyl-1-oxopentan-2-yl]carbamoyl}-2-acetamidoethyl]phenoxyphosphonic acid] | –
1850 | CC(=O)N[C@@H](Cc1ccc(OP(=O)(O)O)cc1)C(=O)N[C@@H](CC(C)C)C(=O)N1CCC[C@H]1C(=O)N[C@@H](CCC(N)=O)C(=O)N(C)C [4-[(2S)-2-{[(2S)-1-[(2S)-2-{[(1S)-3-carbamoyl-1-(dimethylcarbamoyl)propyl]carbamoyl}pyrrolidin-1-yl]-4-methyl-1-oxopentan-2-yl]carbamoyl}-2-acetamidoethyl]phenoxyphosphonic acid] (Ac-[pY]LPQ-NMe2) | –
– | CC(=O)N[C@@H](Cc1ccc(OP(=O)(O)O)cc1)C(=O)N[C@@H](CC(C)C)C(=O)N1CCC[C@@H]1C(=O)N[C@@H](CCC(N)=O)C(=O)N[C@H](C(N)=O)C(C)O (stereo partly drawn) [4-[(2S)-2-{[(2S)-1-[(2R)-2-{[(1S)-3-carbamoyl-1-{[(1S,2S)-1-carbamoyl-2-hydroxypropyl]carbamoyl}propyl]carbamoyl}pyrrolidin-1-yl]-4-methyl-1-oxopentan-2-yl]carbamoyl}-2-acetamidoethyl]phenoxyphosphonic acid] | > 100000
– | CC(C)C[C@H](NC(=O)[C@H](Cc1ccc(OP(=O)(O)O)cc1)NC(=O)OCc1ccccc1)C(=O)N1CCC[C@H]1C(=O)N[C@@H](CCC(N)=O)C(=O)N[C@H](C(N)=O)C(C)O (stereo partly drawn) [4-[(2S)-2-{[(benzyloxy)carbonyl]amino}-2-{[(2S)-1-[(2S)-2-{[(1S)-3-carbamoyl-1-{[(1S,2S)-1-carbamoyl-2-hydroxypropyl]carbamoyl}propyl]carbamoyl}pyrrolidin-1-yl]-4-methyl-1-oxopentan-2-yl]carbamoyl}ethyl]phenoxyphosphonic acid] (Cbz-[pY]LPQ[Thr(3ξ)]-NH2) | 750
– | CC(C)C[C@H](NC(=O)[C@H](Cc1ccc(OP(=O)(O)O)cc1)NC(=O)c1ccccc1)C(=O)N1CCC[C@H]1C(=O)N[C@@H](CCC(N)=O)C(=O)N[C@H](C(N)=O)C(C)O (stereo partly drawn) [4-[(2S)-2-{[(2S)-1-[(2S)-2-{[(1S)-3-carbamoyl-1-{[(1S,2S)-1-carbamoyl-2-hydroxypropyl]carbamoyl}propyl]carbamoyl}pyrrolidin-1-yl]-4-methyl-1-oxopentan-2-yl]carbamoyl}-2-(phenylformamido)ethyl]phenoxyphosphonic acid] (Bz-[pY]LPQ[Thr(3ξ)]-NH2) | 814
– | CC(C)C[C@H](NC(=O)[C@H](Cc1ccc(OP(=O)(O)O)cc1)NC(=O)CCc1ccccc1)C(=O)N1CCC[C@H]1C(=O)N[C@@H](CCC(N)=O)C(=O)N[C@H](C(N)=O)C(C)O (stereo partly drawn) [4-[(2S)-2-{[(2S)-1-[(2S)-2-{[(1S)-3-carbamoyl-1-{[(1S,2S)-1-carbamoyl-2-hydroxypropyl]carbamoyl}propyl]carbamoyl}pyrrolidin-1-yl]-4-methyl-1-oxopentan-2-yl]carbamoyl}-2-(3-phenylpropanamido)ethyl]phenoxyphosphonic acid] (Hydrocinnamoyl-[pY]LPQ[Thr(3ξ)]-NH2) | 276
– | CC(=O)N[C@@H](Cc1ccc(OP(=O)(O)O)cc1)C(=O)N[C@@H](CC(C)C)C(=O)N1CC[C@H]1C(=O)N[C@@H](CCC(N)=O)C(=O)N[C@H](C(N)=O)C(C)O (stereo partly drawn) [4-[(2S)-2-{[(2S)-1-[(2S)-2-{[(1S)-3-carbamoyl-1-{[(1S,2S)-1-carbamoyl-2-hydroxypropyl]carbamoyl}propyl]carbamoyl}azetidin-1-yl]-4-methyl-1-oxopentan-2-yl]carbamoyl}-2-acetamidoethyl]phenoxyphosphonic acid] (Ac-[pY]L[Aze]Q[Thr(3ξ)]-NH2) | 1660
1220 | CC(=O)N[C@@H](Cc1ccc(OP(=O)(O)O)cc1)C(=O)N[C@@H](CC(C)C)C(=O)N1CCC[C@H]1C(=O)N[C@@H](CCC(N)=O)C(=O)N(C)[C@H](C(N)=O)C(C)O (stereo partly drawn) [4-[(2S)-2-{[(2S)-1-[(2S)-2-{[(1S)-3-carbamoyl-1-{[(1S,2S)-1-carbamoyl-2-hydroxypropyl](methyl)carbamoyl}propyl]carbamoyl}pyrrolidin-1-yl]-4-methyl-1-oxopentan-2-yl]carbamoyl}-2-acetamidoethyl]phenoxyphosphonic acid] (Ac-[pY]LPQ[NMeThr(3ξ)]-NH2) | –

SMILES | IC50 [nM] | IC50 (pH 7.5, 22 °C) [nM]
CC(=O)N[C@@H](Cc1ccc(OP(=O)(O)O)cc1)C(=O)N[C@@H](CC(C)C)C(=O)N1CCC[C@H]1C(=O)N[C@@H](CCC(N)=O)C(=O)O [(2S)-4-carbamoyl-2-{[(2S)-1-[(2S)-2-[(2S)-2-acetamido-3-[4-(phosphonooxy)phenyl]propanamido]-4-methylpentanoyl]pyrrolidin-2-yl]formamido}butanoic acid] (Ac-[pY]LPQ-OH) | 748 | –
CC(=O)N[C@@H](Cc1ccc(OP(=O)(O)O)cc1)C(=O)N[C@@H](CC(C)C)C(=O)N1CCC[C@H]1C(=O)N[C@@H](CCC(N)=O)C(=O)N[C@H](C)c1ccccc1 [4-[(2S)-2-{[(2S)-1-[(2S)-2-{[(1S)-3-carbamoyl-1-{[(1R)-1-phenylethyl]carbamoyl}propyl]carbamoyl}pyrrolidin-1-yl]-4-methyl-1-oxopentan-2-yl]carbamoyl}-2-acetamidoethyl]phenoxyphosphonic acid] (Ac-[pY]LPQ-{NH(1R-phenylethyl)}) | 801 | –
CNC(=O)[C@H](CCC(N)=O)NC(=O)[C@@H]1CCCN1C(=O)[C@H](CC(C)C)NC(=O)[C@H](Cc1ccc(OP(=O)(O)O)cc1)NC(C)=O [4-[(2S)-2-{[(2S)-1-[(2S)-2-{[(1S)-3-carbamoyl-1-(methylcarbamoyl)propyl]carbamoyl}pyrrolidin-1-yl]-4-methyl-1-oxopentan-2-yl]carbamoyl}-2-acetamidoethyl]phenoxyphosphonic acid] (Ac-[pY]LPQ-NHMe) | 882 | –
